# According to US11612606B2, “8-aminoisoquinoline compounds and uses thereof” (priority 2018, dated 2023):
# Counter-ions that a name gives are not always drawn.
# Molecular target: HPK full length, T165E S171E (Homo sapiens (Human), UniProt Q92918, S171E/T165E)
# Assay: HPK1-FL HTRF enzymatic assay ("HTRF")
# Type: biochemical
# Settings: ATP 1 mM, read-out: HPK1 Ki
# In short: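 Full-length HPK1 (T165E/S171E) was preincubated 30 min with compound, then reacted 60 min with biotin-SLP-76 and 1 mM ATP. Phospho-SLP-76 was detected by HTRF (Eu-anti-pSLP76 antibody, SA-XL665) after a further 60 min.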
# HPK full length, T165E S171E, sequence (Q92918 whole entry T165E/S171E, looked up): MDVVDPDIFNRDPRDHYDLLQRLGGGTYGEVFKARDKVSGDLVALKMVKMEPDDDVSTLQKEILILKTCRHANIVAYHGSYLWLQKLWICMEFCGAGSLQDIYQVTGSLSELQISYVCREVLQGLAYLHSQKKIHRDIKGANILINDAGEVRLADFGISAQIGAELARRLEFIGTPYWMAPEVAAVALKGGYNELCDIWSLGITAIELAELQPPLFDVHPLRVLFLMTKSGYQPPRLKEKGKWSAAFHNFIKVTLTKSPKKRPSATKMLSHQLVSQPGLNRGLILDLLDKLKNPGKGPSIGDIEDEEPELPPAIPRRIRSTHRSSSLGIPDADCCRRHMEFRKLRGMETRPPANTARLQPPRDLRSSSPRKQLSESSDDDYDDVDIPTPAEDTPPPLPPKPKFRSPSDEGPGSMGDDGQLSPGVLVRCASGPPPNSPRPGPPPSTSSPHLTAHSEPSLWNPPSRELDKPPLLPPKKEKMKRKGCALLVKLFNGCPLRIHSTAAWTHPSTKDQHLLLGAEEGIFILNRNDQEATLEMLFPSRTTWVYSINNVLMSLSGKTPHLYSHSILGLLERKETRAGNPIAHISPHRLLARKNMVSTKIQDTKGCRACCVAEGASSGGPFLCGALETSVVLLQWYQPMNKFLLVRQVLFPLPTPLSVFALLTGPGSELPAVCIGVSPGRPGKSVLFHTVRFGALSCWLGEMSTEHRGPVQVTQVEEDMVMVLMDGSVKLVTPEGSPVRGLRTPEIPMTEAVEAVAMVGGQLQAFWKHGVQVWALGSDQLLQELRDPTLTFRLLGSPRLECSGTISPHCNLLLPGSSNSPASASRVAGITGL
row,Compound,Ki [nM]
1,"Cc1c(-c2cc3cc(NC(=O)OC4CC5(C4)CN(C)C5)ncc3c(N)c2F)cnc2c1NCCC2 [Compound 425, 2-Methyl-2-azaspiro[3.3]heptan-6-yl (8-amino-7-fluoro-6-(4-methyl-5,6,7,8-tetrahydro-1,5-naphthyridin-3-yl)isoquinolin-3-yl)carbamate]",< 0.013
2,"CC(=O)N1CC(OC(=O)Nc2cc3cc(-c4cnc5c(c4C)NCCO5)c(F)c(N)c3cn2)C1 [Compound 426, (1-Acetylazetidin-3-yl) N-[8-amino-7-fluoro-6-(8-methyl-2,3-dihydro-1H-pyrido[2,3-b][1,4]oxazin-7-yl)-3-isoquinolyl]carbamate]",< 0.013
3,"Cc1c(-c2cc3cc(NC(=O)OC4CC5(CCN(C)CC5)C4)ncc3c(N)c2F)cnc2c1NCCO2 [Compound 427, 7-Methyl-7-azaspiro[3.5]nonan-2-yl (8-amino-7-fluoro-6-(8-methyl-2,3-dihydro-1H-pyrido[2,3-b][1,4]oxazin-7-yl)isoquinolin-3-yl)carbamate]",< 0.013
4,"Cc1c(-c2cc3cc(NC(=O)OC4CC5(CCN(C)C5)C4)ncc3c(N)c2F)cnc2c1NCCO2 (stereo not shown) [Compound 428, 6-Methyl-6-azaspiro[3.4]octan-2-yl (8-amino-7-fluoro-6-(8-methyl-2,3-dihydro-1H-pyrido[2,3-b][1,4]oxazin-7-yl)isoquinolin-3-yl)carbamate]",< 0.013
5,"CC(=O)N1CC(OC(=O)Nc2cc3cc(-c4cnc5c(c4C)NCCC5)c(F)c(N)c3cn2)C1 [Compound 429, 1-Acetylazetidin-3-yl (8-amino-7-fluoro-6-(4-methyl-5,6,7,8-tetrahydro-1,5-naphthyridin-3-yl)isoquinolin-3-yl)carbamate formic acid]",0.028
6,"Cc1c(-c2cc3cc(NC(=O)OC4CC5(CCN(C6COC6)CC5)C4)ncc3c(N)c2F)cnc2c1NCCC2 [Compound 430, 7-(Oxetan-3-yl)-7-azaspiro[3.5]nonan-2-yl (8-amino-7-fluoro-6-(4-methyl-5,6,7,8-tetrahydro-1,5-naphthyridin-3-yl)isoquinolin-3-yl)carbamate]",< 0.013
7,"Cc1c(-c2cc3cc(NC(=O)OC4C5CC4CN(C)C5)ncc3c(N)c2F)cnc2c1NCCO2 (stereo not shown) [Compound 431, 3-Methyl-3-azabicyclo[3.1.1]heptan-6-yl (8-amino-7-fluoro-6-(8-methyl-2,3-dihydro-1H-pyrido[2,3-b][1,4]oxazin-7-yl)isoquinolin-3-yl)carbamate]",2.3
8,"Cc1c(-c2cc3cc(NC(=O)O[C@H]4[C@@H]5CN(C)C[C@@H]54)ncc3c(N)c2F)cnc2c1NCCO2 [Compound 432a, (1R,5S,6s)-3-Methyl-3-azabicyclo[3.1.0]hexan-6-yl (8-amino-7-fluoro-6-(8-methyl-2,3-dihydro-1H-pyrido[2,3-b][1,4]oxazin-7-yl)isoquinolin-3-yl)carbamate]",< 0.013
9,"Cc1c(-c2cc3cc(NC(=O)OC4CN(CC(F)F)C4)ncc3c(N)c2F)cnc2c1NCCO2 [Compound 434, 1-(2,2-Difluoroethyl)azetidin-3-yl (8-amino-7-fluoro-6-(8-methyl-2,3-dihydro-1H-pyrido[2,3-b][1,4]oxazin-7-yl)isoquinolin-3-yl)carbamate]",< 0.013
10,"Cc1c(-c2cc3cc(NC(=O)OC4CCN(C)CC4(C)C)ncc3c(N)c2F)cnc2c1NCCO2 (stereo not shown) [Compound 435, (1,3,3-Trimethyl-4-piperidyl) N-[8-amino-7-fluoro-6-(8-methyl-2,3-dihydro-1H-pyrido[2,3-b][1,4]oxazin-7-yl)-3-isoquinolyl]carbamate]",0.187
11,"Cc1c(-c2cc3cc(NC(=O)OC(C)C)ncc3c(N)c2F)cnc2c1NCCO2 [Compound 436, Isopropyl (8-amino-7-fluoro-6-(8-methyl-2,3-dihydro-1H-pyrido[2,3-b][1,4]oxazin-7-yl)isoquinolin-3-yl)carbamate]",0.014
12,"Cc1c(-c2cc3cc(NC(=O)OC4CC5(C4)CN(C4COC4)C5)ncc3c(N)c2F)cnc2c1NCCO2 [Compound 443, 2-(Oxetan-3-yl)-2-azaspiro[3.3]heptan-6-yl (8-amino-7-fluoro-6-(8-methyl-2,3-dihydro-1H-pyrido[2,3-b][1,4]oxazin-7-yl)isoquinolin-3-yl)carbamate]",< 0.013
13,"Cc1c(-c2cc3cc(NC(=O)O[C@@H]4CCN(C5COC5)C[C@@H]4F)ncc3c(N)c2F)cnc2c1NCCO2 [Compound 445c, (3S,4R)-3-Fluoro-1-(oxetan-3-yl)piperidin-4-yl (8-amino-7-fluoro-6-(8-methyl-2,3-dihydro-1H-pyrido[2,3-b][1,4]oxazin-7-yl)isoquinolin-3-yl)carbamate]",0.015
14,"Cc1c(-c2cc3cc(NC(=O)O[C@H]4CCN(C5COC5)C[C@H]4F)ncc3c(N)c2F)cnc2c1NCCO2 [Compound 445d, (3R,4S)-3-Fluoro-1-(oxetan-3-yl)piperidin-4-yl (8-amino-7-fluoro-6-(8-methyl-2,3-dihydro-1H-pyrido[2,3-b][1,4]oxazin-7-yl)isoquinolin-3-yl)carbamate]",< 0.013
15,"Cc1c(-c2cc3cc(NC(=O)O[C@H]4C[C@H](N(C)C)C4)ncc3c(N)c2F)cnc2c1NCCO2 [Compound 447a, (1r,3r)-3-(Dimethylamino)cyclobutyl (8-amino-7-fluoro-6-(8-methyl-2,3-dihydro-1H-pyrido[2,3-b][1,4]oxazin-7-yl)isoquinolin-3-yl)carbamate hydrochloride]",< 0.013
16,"Cc1c(-c2cc3cc(NC(=O)OCC4(F)CN(C)C4)ncc3c(N)c2F)cnc2c1NCCO2 [Compound 450, (3-Fluoro-1-methyl-azetidin-3-yl)methyl N-[8-amino-7-fluoro-6-(8-methyl-2,3-dihydro-1H-pyrido[2,3-b][1,4]oxazin-7-yl)-3-isoquinolyl]carbamate]",0.13
17,"Cc1c(-c2cc3cc(NC(=O)O[C@H]4CN(C)C[C@@H]4F)ncc3c(N)c2F)cnc2c1NCCO2 [Compound 452a, (3S,4S)-4-Fluoro-1-methylpyrrolidin-3-yl (8-amino-7-fluoro-6-(8-methyl-2,3-dihydro-1H-pyrido[2,3-b][1,4]oxazin-7-yl)isoquinolin-3-yl)carbamate]",0.03
18,"Cc1c(-c2cc3cc(NC(=O)O[C@H]4CN(C)C[C@H]4F)ncc3c(N)c2F)cnc2c1NCCO2 [Compound 452c, (3S,4R)-4-Fluoro-1-methylpyrrolidin-3-yl (8-amino-7-fluoro-6-(8-methyl-2,3-dihydro-1H-pyrido[2,3-b][1,4]oxazin-7-yl)isoquinolin-3-yl)carbamate]",0.17
19,"Cc1c(-c2cc3cc(NC(=O)OC4CN(C)CCN(C)C4)ncc3c(N)c2F)cnc2c1NCCO2 [Compound 465, 1,4-Dimethyl-1,4-diazepan-6-yl (8-amino-7-fluoro-6-(8-methyl-2,3-dihydro-1H-pyrido[2,3-b][1,4]oxazin-7-yl)isoquinolin-3-yl)carbamate]",0.46
20,"COCCN1CC(OC(=O)Nc2cc3cc(-c4cnc5c(c4C)NCCO5)c(F)c(N)c3cn2)C1 [Compound 474, 1-(2-Methoxyethyl)azetidin-3-yl (8-amino-7-fluoro-6-(8-methyl-2,3-dihydro-1H-pyrido[2,3-b][1,4]oxazin-7-yl)isoquinolin-3-yl)carbamate]",0.06
21,"Cc1c(-c2cc3cc(NC(=O)O[C@@H]4COC[C@H]4F)ncc3c(N)c2F)cnc2c1NCCO2 [Compound 477a, (3R,4R)-4-Fluorotetrahydrofuran-3-yl (8-amino-7-fluoro-6-(8-methyl-2,3-dihydro-1H-pyrido[2,3-b][1,4]oxazin-7-yl)isoquinolin-3-yl)carbamate]",0.034
22,"Cc1c(-c2cc3cc(NC(=O)O[C@H]4COC[C@H]4F)ncc3c(N)c2F)cnc2c1NCCO2 [Compound 477c, (3S,4R)-4-Fluorotetrahydrofuran-3-yl (8-amino-7-fluoro-6-(8-methyl-2,3-dihydro-1H-pyrido[2,3-b][1,4]oxazin-7-yl)isoquinolin-3-yl)carbamate]",0.15
23,"Cc1c(-c2cc3cc(NC(=O)O[C@H]4C[C@@H](C#N)C4)ncc3c(N)c2F)cnc2c1NCCC2 [Compound 483a, (1s,3s)-3-Cyanocyclobutyl (8-amino-7-fluoro-6-(4-methyl-5,6,7,8-tetrahydro-1,5-naphthyridin-3-yl)isoquinolin-3-yl)carbamate]",< 0.013
24,"Cc1c(-c2cc3cc(NC(=O)O[C@H]4C[C@@H](C#N)C4)ncc3c(N)c2F)cnc2c1NCCO2 [Compound 484a, (1s,3s)-3-Cyanocyclobutyl (8-amino-7-fluoro-6-(8-methyl-2,3-dihydro-1H-pyrido[2,3-b][1,4]oxazin-7-yl)isoquinolin-3-yl)carbamate]",< 0.013
25,"Cc1c(-c2cc3cc(NC(=O)O[C@H]4C[C@@H](O)C4)ncc3c(N)c2F)cnc2c1NCCO2 [Compound 485a, (1s,3s)-3-Hydroxycyclobutyl (8-amino-7-fluoro-6-(8-methyl-2,3-dihydro-1H-pyrido[2,3-b][1,4]oxazin-7-yl)isoquinolin-3-yl)carbamate]",< 0.013
26,"Cc1c(-c2cc3cc(NC(=O)O[C@H]4C[C@H](O)C4)ncc3c(N)c2F)cnc2c1NCCO2 [Compound 485b, (1r,3r)-3-Hydroxycyclobutyl (8-amino-7-fluoro-6-(8-methyl-2,3-dihydro-1H-pyrido[2,3-b][1,4]oxazin-7-yl)isoquinolin-3-yl)carbamate]",< 0.013
27,"Cc1c(-c2cc3cc(NC(=O)O[C@H]4C[C@](C)(O)C4)ncc3c(N)c2F)cnc2c1NCCO2 [Compound 486b, (1r,3r)-3-Hydroxy-3-methylcyclobutyl (8-amino-7-fluoro-6-(8-methyl-2,3-dihydro-1H-pyrido[2,3-b][1,4]oxazin-7-yl)isoquinolin-3-yl)carbamate]",0.018

# Same assay, conditions: HPK1 Ki, ATP 1 mM
row,Compound,Ki [nM]
1,"Cc1c(-c2cc3cc(NC(=O)O[C@@H]4CN(C)C[C@H]4F)ncc3c(N)c2F)cnc2c1NCCO2 [Compound 452b, (3R,4R)-4-Fluoro-1-methylpyrrolidin-3-yl (8-amino-7-fluoro-6-(8-methyl-2,3-dihydro-1H-pyrido[2,3-b][1,4]oxazin-7-yl)isoquinolin-3-yl)carbamate]",0.036
